According to patent US10774080B2, “Pyrimidine compound as JAK kinase inhibitor” (THERAVANCE BIOPHARMA R&D IP, LLC, priority 2017, dated 2020):

Tests used:
JAK3 = molecular target: T1, JAK3 (Homo sapiens, UniProt P52333); test: Biochemical JAK kinase assay (LanthaScreen), JAK3; conditions: converted from pIC50 by Cheng-Prusoff; ATP at Km 1.6 μM; read-out: JAK 3 (pKi) (converted)
T1 construct: GST; purchased Life Technologies
T1 sequence (P52333 1-1124): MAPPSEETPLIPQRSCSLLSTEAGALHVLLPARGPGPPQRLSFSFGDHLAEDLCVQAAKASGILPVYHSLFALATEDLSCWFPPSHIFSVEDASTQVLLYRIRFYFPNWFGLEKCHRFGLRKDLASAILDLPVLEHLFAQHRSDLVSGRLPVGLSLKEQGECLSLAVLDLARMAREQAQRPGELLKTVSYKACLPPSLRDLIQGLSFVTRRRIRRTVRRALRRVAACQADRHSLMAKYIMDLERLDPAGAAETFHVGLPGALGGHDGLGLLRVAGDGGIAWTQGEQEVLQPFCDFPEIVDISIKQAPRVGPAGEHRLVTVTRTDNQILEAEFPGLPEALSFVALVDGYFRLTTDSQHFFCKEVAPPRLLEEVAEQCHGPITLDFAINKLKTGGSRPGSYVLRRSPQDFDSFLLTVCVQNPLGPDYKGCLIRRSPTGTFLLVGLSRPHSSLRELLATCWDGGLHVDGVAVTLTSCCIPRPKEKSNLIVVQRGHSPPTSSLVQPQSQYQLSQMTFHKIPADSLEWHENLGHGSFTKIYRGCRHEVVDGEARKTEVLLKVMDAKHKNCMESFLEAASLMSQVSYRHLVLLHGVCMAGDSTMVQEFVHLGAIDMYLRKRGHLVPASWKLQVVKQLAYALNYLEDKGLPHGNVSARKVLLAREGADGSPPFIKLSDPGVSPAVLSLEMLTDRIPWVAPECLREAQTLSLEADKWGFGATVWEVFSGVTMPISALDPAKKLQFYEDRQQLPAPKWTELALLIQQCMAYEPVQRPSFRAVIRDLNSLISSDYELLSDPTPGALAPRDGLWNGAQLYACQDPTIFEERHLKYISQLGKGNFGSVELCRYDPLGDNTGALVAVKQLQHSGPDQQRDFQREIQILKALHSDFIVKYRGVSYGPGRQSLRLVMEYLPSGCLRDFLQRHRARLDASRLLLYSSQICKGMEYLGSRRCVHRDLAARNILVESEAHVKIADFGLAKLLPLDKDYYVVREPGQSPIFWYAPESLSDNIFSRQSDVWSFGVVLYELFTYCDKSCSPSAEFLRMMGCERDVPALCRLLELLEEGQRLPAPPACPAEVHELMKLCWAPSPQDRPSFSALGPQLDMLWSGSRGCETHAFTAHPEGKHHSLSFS
Method: Assay 1: Biochemical JAK and Tyk2 Kinase Assays A panel of four LanthaScreen JAK biochemical assays (JAK1, 2, 3 and Tyk2) were carried in a common kinase reaction buffer (50 mM HEPES, pH 7.5, 0.01% Brij-35, 10 mM MgCl2, and 1 mM EGTA). Recombinant GST-tagged JAK enzymes and a GFP-tagged STAT1 peptide substrate were obtained from Life Technologies. Serially or discretely diluted compounds were pre-incubated with each of the four JAK enzymes and the substrate in white 384-well microplates (Corning) at ambient temperature for 1 h. ATP was subsequently added to initiate the kinase reactions in 10 μL total volume, with 1% DMSO. […] The plates were allowed to incubate at ambient temperature for 1 h before being read on the EnVision reader (Perkin Elmer). Emission ratio signals (520 nm/495 nm) were recorded and utilized to calculate the percent inhibition values based on DMSO and background controls. For dose-response analysis, percent inhibition data were plotted vs. compound concentrations, and IC50 values were determined from a 4-parameter robust fit model with the Prism software (GraphPad Software). Results were expressed as pIC50 (negative logarithm of IC50) and subsequently converted to pKi (negative logarithm of dissociation constant, Ki) using the Cheng-Prusoff equation.

[1] = tested on: IL-31-induced production of pSTAT3 in mouse skin; test: Assay 9: in vivo IL-31-pSTAT3 JAK target engagement in mice; design: species or system Balb/c mice; conditions: topical ointment 25 μl/cm^2, 30 minutes before intradermal IL-31, biopsy one hour after IL-31
Description: Assay 9: In Vivo IL-31-pSTAT3 JAK Target Engagement Assay in Mice
An in vivo model of IL-31-induced production of phosphorylated signal transducer and activator of transcription 3 (pSTAT3) in mice was used to assess local target engagement on mouse skin.
The JAK/STAT (janus kinase/signal transducer and activator of transcription) signaling pathway is a key element in the communication between immune cells and is mainly activated through cytokine receptors. Binding of cytokine IL-31 leads to the activation and phosphorylation of JAK1/JAK2 tyrosine kinases which in turn leads to the phosphorylation of STAT3 (pSTAT3). The activated STAT then translocates into the nucleus and directly regulates the transcription of cytokine-sensitive genes. In these studies, Balb/c mice were dosed with an ointment formulation of compound (I). Ointment vehicle (Table 9) or compound (I) formulated in the ointment vehicle was applied topically to shaved skin (25 μl/cm^2) 30 minutes before the intradermal injection (50 μl/1×1 cm2 site) of IL-31 (1 μg/ml) at a 1×1 cm^2 shaved area of skin on the back between the ears. One hour after IL-31, skin biopsies were collected. The tissue samples were flash frozen and analyzed for pSTAT3 by ELISA and compound concentration. Compound (I) inhibited pSTAT3 production by 80% and the skin tissue concentration of compound (I) was 62 μM.

Question: What does the source list for `CCS(=O)(=O)N1[C@@H]2CCC[C@H]1C[C@H](N(C)c1nc(CO)c(F)c(Nc3cc(C)[nH]n3)n1)C2` [Compound (I), (2-(((1R,3s,5S)-9-(ethylsulfonyl)-9-azabicyclo[3.3.1]nonan-3-yl)(methyl)amino)-5-fluoro-6-((5-methyl-1H-pyrazol-3-yl)amino)pyrimidin-4-yl)methanol]?
Answer: Ki (JAK3): 0.794 nM; inhibition of IL-31-induced pSTAT3 production [1]: 80%
